Results reported in ChEMBL document CHEMBL4507288 (2021).
The source made the active and inactive calls. No cut-off for these calls is given here.

Legend:
[1] = molecular target: Ephrin type-A receptor 3 (Homo sapiens) (UniProt P29320); conditions: Compound concentration 1000.0 nM
[2] = molecular target: Serine/threonine-protein kinase SBK1 (Homo sapiens) (UniProt Q52WX2); conditions: Compound concentration 1000.0 nM
[3] = test system: Serine/threonine-protein kinase B-raf (Homo sapiens), P15056 [V600E]; conditions: Compound concentration 1000.0 nM
[4] = test system: Epidermal growth factor receptor (Homo sapiens), P00533 [L861Q]; conditions: Compound concentration 1000.0 nM
[5] = test system: ALK tyrosine kinase receptor (Homo sapiens), Q9UM73 [L1196M]; conditions: Compound concentration 1000.0 nM
[6] = molecular target: Tyrosine-protein kinase ITK/TSK (Homo sapiens) (UniProt Q08881); conditions: Compound concentration 1000.0 nM
[7] = molecular target: Dual specificity mitogen-activated protein kinase kinase 4 (Homo sapiens) (UniProt P45985); conditions: Compound concentration 1000.0 nM
[8] = molecular target: Transient receptor potential cation channel subfamily M member 6 (Homo sapiens) (UniProt Q9BX84); conditions: Compound concentration 1000.0 nM
[9] = molecular target: Serine/threonine-protein kinase DCLK2 (Homo sapiens) (UniProt Q8N568); conditions: Compound concentration 1000.0 nM
[10] = test system: Mast/stem cell growth factor receptor Kit (Homo sapiens), P10721 [D816H]; conditions: Compound concentration 1000.0 nM
[11] = molecular target: Serine/threonine-protein kinase 10 (Homo sapiens) (UniProt O94804); conditions: Compound concentration 1000.0 nM
[12] = molecular target: Mitogen-activated protein kinase 15 (Homo sapiens) (UniProt Q8TD08); conditions: Compound concentration 1000.0 nM
[13] = molecular target: Dual serine/threonine and tyrosine protein kinase (Homo sapiens) (UniProt Q6XUX3); conditions: Compound concentration 1000.0 nM
[14] = molecular target: Serine/threonine-protein kinase ULK1 (Homo sapiens) (UniProt O75385); conditions: Compound concentration 1000.0 nM
[15] = molecular target: Serine/threonine-protein kinase TBK1 (Homo sapiens) (UniProt Q9UHD2); conditions: Compound concentration 1000.0 nM
[16] = molecular target: Ephrin type-B receptor 4 (Homo sapiens) (UniProt P54760); conditions: Compound concentration 1000.0 nM
[17] = test system: Tyrosine-protein kinase ABL1 (Homo sapiens), P00519 [F317L]; conditions: Compound concentration 1000.0 nM
[18] = molecular target: Testis-specific serine/threonine-protein kinase 3 (Homo sapiens) (UniProt Q96PN8); conditions: Compound concentration 1000.0 nM
[19] = molecular target: Amyloid-beta precursor protein (Homo sapiens, UniProt P05067); assay: Aβ42 inhibition assay
[20] = test system: Receptor-type tyrosine-protein kinase FLT3 (Homo sapiens), P36888 [D835H]; conditions: Compound concentration 1000.0 nM
[21] = test system: Epidermal growth factor receptor (Homo sapiens), P00533 [G719S]; conditions: Compound concentration 1000.0 nM
[22] = molecular target: Serine/threonine-protein kinase N1 (Homo sapiens) (UniProt Q16512); conditions: Compound concentration 1000.0 nM
[23] = molecular target: Serine/threonine-protein kinase pim-1 (Homo sapiens) (UniProt P11309); conditions: Compound concentration 1000.0 nM
[24] = molecular target: Protein kinase C delta type (Homo sapiens) (UniProt Q05655); conditions: Compound concentration 1000.0 nM
[25] = molecular target: Serine/threonine-protein kinase tousled-like 1 (Homo sapiens) (UniProt Q9UKI8); conditions: Compound concentration 1000.0 nM
[26] = molecular target: Calcium/calmodulin-dependent protein kinase type 1D (Homo sapiens) (UniProt Q8IU85); conditions: Compound concentration 1000.0 nM
[27] = molecular target: Homeodomain-interacting protein kinase 1 (Homo sapiens) (UniProt Q86Z02); conditions: Compound concentration 1000.0 nM
[28] = molecular target: Serine/threonine-protein kinase Nek3 (Homo sapiens) (UniProt P51956); conditions: Compound concentration 1000.0 nM
[29] = test system: Proto-oncogene tyrosine-protein kinase receptor Ret (Homo sapiens), P07949 [V804M]; conditions: Compound concentration 1000.0 nM
[30] = molecular target: Cyclin-dependent kinase-like 2 (Homo sapiens) (UniProt Q92772); conditions: Compound concentration 1000.0 nM
[31] = molecular target: Tyrosine-protein kinase ZAP-70 (Homo sapiens) (UniProt P43403); conditions: Compound concentration 1000.0 nM
[32] = molecular target: Microtubule-associated serine/threonine-protein kinase 1 (Homo sapiens) (UniProt Q9Y2H9); conditions: Compound concentration 1000.0 nM
[33] = molecular target: Rhodopsin kinase GRK1 (Homo sapiens) (UniProt Q15835); conditions: Compound concentration 1000.0 nM
[34] = molecular target: Ribosomal protein S6 kinase alpha-6 (Homo sapiens) (UniProt Q9UK32); conditions: Compound concentration 1000.0 nM
[35] = molecular target: Ribosomal protein S6 kinase alpha-3 (Homo sapiens) (UniProt P51812); conditions: Compound concentration 1000.0 nM
[36] = molecular target: Epidermal growth factor receptor (Homo sapiens) (UniProt P00533); conditions: Compound concentration 1000.0 nM
[37] = molecular target: Serine/threonine-protein kinase MAK (Homo sapiens) (UniProt P20794); conditions: Compound concentration 1000.0 nM
[38] = molecular target: Serine/threonine-protein kinase Nek4 (Homo sapiens) (UniProt P51957); conditions: Compound concentration 1000.0 nM
[39] = molecular target: SNF-related serine/threonine-protein kinase (Homo sapiens) (UniProt Q9NRH2); conditions: Compound concentration 1000.0 nM
[40] = test system: Phosphatidylinositol 4,5-bisphosphate 3-kinase catalytic subunit alpha isoform (Homo sapiens), P42336 [M1043I]; conditions: Compound concentration 1000.0 nM
[41] = molecular target: Phosphatidylinositol 3-kinase C2 domain-containing subunit gamma (Homo sapiens) (UniProt O75747); conditions: Compound concentration 1000.0 nM
[42] = molecular target: STE20/SPS1-related proline-alanine-rich protein kinase (Homo sapiens) (UniProt Q9UEW8); conditions: Compound concentration 1000.0 nM
[43] = molecular target: 5-hydroxytryptamine receptor 2B (Homo sapiens, UniProt P41595); assay: GPCRScan assay: inhibition of 5-HT2B; set-up: radioligand conc. used [nm] 1.0 – 2.0, parental cells stable HEK
[44] = molecular target: 5-hydroxytryptamine receptor 1D (Homo sapiens, UniProt P28221); assay: GPCRScan assay: inhibition of 5-HT1D; set-up: radioligand conc. used [nm] 1.0 – 2.0, parental cells HEKT
[45] = molecular target: Sodium-dependent noradrenaline transporter (Homo sapiens, UniProt P23975); assay: GPCRScan assay: inhibition of NET; set-up: radioligand conc. used [nm] 1.3 – 5.0, parental cells stable HEK

Chain of Mitogen-activated protein kinase 15 (Homo sapiens) (Q8TD08 whole entry): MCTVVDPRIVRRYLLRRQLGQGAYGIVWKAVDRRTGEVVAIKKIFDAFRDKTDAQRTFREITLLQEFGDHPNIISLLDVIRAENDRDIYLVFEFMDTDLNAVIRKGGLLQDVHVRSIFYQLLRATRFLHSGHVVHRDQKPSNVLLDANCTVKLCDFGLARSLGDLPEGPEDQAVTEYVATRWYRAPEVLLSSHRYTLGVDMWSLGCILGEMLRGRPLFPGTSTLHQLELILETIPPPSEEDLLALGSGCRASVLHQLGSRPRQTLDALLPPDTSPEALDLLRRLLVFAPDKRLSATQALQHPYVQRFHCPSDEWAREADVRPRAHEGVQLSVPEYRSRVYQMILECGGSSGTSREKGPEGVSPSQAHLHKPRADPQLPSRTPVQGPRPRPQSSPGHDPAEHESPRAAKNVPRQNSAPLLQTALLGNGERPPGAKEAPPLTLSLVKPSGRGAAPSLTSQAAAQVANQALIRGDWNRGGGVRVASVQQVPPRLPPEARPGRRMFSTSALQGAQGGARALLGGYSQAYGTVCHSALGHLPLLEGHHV
Chain of Mast/stem cell growth factor receptor Kit (Homo sapiens), P10721 [D816H] (P10721 whole entry D816H): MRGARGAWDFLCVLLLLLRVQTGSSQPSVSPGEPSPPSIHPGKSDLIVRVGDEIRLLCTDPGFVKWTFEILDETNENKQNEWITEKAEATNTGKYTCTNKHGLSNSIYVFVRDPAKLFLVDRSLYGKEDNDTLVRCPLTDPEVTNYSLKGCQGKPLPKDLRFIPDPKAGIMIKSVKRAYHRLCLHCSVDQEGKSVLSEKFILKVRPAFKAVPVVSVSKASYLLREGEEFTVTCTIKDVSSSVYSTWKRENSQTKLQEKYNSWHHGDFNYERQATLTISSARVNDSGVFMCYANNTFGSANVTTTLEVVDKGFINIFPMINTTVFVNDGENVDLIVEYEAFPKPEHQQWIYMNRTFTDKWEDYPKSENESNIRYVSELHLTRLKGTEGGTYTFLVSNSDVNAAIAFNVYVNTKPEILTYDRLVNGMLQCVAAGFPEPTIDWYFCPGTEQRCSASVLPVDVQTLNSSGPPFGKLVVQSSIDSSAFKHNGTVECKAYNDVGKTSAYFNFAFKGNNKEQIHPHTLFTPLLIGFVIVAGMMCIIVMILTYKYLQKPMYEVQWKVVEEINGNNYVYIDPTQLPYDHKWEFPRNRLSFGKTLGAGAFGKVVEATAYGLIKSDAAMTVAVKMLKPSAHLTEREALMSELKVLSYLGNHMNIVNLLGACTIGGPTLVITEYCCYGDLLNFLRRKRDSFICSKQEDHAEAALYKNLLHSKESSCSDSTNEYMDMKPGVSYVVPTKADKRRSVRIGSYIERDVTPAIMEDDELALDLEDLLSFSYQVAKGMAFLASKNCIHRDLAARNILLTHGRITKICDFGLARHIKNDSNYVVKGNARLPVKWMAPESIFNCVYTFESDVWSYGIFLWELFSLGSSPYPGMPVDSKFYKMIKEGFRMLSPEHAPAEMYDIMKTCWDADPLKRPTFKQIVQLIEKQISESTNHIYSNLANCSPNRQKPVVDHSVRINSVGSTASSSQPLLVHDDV
Chain of Microtubule-associated serine/threonine-protein kinase 1 (Homo sapiens) (Q9Y2H9 whole entry, looked up): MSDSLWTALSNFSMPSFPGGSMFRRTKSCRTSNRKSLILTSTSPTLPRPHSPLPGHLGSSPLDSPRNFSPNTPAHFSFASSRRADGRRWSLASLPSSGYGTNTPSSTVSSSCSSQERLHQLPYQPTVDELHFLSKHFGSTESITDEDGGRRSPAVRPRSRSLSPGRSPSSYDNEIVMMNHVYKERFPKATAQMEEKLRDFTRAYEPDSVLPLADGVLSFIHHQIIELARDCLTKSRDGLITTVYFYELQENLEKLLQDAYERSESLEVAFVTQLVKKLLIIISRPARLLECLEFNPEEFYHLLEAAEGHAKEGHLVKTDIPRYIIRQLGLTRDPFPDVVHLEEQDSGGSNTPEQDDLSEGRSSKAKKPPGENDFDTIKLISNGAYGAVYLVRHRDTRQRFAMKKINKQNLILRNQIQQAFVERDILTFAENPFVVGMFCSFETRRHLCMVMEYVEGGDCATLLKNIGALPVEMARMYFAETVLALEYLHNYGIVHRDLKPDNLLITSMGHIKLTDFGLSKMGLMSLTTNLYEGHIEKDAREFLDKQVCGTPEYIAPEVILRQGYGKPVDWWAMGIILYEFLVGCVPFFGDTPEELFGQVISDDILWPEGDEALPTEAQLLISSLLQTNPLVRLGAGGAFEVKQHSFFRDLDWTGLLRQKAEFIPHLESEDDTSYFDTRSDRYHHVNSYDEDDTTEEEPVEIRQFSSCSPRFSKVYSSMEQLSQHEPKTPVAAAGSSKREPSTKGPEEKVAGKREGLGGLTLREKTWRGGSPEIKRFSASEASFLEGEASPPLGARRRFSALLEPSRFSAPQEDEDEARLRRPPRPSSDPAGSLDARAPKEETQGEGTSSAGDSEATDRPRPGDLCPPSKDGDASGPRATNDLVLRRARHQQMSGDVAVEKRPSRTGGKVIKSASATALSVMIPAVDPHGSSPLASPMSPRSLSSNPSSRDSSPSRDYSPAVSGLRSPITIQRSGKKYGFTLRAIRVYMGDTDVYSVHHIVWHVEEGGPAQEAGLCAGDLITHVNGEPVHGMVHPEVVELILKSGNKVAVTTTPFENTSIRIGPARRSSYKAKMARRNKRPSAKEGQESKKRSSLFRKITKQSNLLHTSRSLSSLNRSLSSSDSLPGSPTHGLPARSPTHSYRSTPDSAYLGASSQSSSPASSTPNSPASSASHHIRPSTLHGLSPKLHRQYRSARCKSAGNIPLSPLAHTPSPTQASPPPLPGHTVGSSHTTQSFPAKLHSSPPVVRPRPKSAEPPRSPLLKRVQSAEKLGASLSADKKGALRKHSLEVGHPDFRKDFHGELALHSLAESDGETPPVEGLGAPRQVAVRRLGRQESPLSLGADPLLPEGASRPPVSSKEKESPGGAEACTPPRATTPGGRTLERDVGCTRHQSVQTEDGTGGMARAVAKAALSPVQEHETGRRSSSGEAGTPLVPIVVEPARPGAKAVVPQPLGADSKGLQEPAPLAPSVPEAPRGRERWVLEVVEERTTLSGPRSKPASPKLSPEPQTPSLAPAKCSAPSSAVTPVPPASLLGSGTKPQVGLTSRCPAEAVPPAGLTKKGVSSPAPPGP
Chain of Serine/threonine-protein kinase 10 (Homo sapiens) (O94804 whole entry, looked up): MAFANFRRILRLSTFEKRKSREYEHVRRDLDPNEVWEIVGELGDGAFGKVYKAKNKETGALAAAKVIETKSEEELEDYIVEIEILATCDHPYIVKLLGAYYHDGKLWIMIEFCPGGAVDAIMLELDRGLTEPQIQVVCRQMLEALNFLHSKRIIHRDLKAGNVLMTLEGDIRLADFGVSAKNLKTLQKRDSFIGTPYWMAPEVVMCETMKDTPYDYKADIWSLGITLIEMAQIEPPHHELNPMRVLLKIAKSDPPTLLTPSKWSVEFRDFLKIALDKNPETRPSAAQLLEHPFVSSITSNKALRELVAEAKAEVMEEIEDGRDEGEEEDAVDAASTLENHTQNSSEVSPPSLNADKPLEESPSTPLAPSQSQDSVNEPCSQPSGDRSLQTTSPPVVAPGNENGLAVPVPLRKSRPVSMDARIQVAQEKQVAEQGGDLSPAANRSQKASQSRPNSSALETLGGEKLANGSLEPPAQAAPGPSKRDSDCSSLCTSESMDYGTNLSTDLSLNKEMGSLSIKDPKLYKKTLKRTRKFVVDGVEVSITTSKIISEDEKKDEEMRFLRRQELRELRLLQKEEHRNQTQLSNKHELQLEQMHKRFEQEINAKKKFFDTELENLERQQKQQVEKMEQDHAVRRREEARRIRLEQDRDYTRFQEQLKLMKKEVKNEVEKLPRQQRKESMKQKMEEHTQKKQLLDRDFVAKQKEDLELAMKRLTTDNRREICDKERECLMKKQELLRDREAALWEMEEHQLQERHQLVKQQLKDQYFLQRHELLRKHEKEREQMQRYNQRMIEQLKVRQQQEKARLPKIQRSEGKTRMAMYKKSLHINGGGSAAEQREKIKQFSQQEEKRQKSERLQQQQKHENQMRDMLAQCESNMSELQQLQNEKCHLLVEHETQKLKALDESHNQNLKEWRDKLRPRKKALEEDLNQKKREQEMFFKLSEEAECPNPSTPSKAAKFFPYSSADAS
Chain of Serine/threonine-protein kinase B-raf (Homo sapiens), P15056 [V600E] (P15056 whole entry V600E): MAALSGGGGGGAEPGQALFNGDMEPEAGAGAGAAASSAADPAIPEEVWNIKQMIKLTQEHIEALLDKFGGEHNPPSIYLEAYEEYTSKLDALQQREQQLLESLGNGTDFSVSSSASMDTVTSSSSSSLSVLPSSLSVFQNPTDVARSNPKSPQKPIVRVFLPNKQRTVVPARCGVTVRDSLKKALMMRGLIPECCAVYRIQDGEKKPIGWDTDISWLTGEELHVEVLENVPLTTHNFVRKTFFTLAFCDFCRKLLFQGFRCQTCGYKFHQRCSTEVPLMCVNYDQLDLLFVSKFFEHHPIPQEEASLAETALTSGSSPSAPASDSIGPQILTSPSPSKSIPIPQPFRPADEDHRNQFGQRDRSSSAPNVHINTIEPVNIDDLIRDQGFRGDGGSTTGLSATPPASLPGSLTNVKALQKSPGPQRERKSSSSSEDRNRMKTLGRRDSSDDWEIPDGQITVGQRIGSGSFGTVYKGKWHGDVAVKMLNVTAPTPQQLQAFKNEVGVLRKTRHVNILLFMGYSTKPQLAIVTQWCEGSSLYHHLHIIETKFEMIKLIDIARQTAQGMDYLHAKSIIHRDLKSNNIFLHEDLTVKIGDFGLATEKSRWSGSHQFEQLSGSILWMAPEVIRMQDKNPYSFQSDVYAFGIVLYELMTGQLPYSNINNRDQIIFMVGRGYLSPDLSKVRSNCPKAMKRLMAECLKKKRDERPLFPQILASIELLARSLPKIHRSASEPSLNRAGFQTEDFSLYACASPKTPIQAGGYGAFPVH
Chain of Testis-specific serine/threonine-protein kinase 3 (Homo sapiens) (Q96PN8 whole entry): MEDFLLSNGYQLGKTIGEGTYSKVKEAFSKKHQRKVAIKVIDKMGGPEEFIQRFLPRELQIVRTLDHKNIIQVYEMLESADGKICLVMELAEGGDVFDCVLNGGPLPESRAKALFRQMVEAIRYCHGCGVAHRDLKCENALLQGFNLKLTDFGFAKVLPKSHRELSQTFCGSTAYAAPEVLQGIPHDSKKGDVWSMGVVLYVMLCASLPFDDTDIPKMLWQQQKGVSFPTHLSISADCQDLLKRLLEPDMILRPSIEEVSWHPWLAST

## O=S(=O)(NC1CCC(c2cc(F)ccc2F)(S(=O)(=O)c2ccc(Cl)cc2)CC1)C(F)(F)F (stereo not given) [MRK-560]
[1]
  residual activity: 100%
[2]
  residual activity: 75%
[3]
  residual activity: 86%
[4]
  residual activity: 100%
[5]
  residual activity: 94%
[6]
  residual activity: 97%
[7]
  residual activity: 76%
[8]
  residual activity: 95%
[9]
  residual activity: 94%
[10]
  residual activity: 71%
[11]
  residual activity: 100%
[12]
  residual activity: 94%
[13]
  residual activity: 100%
[14]
  residual activity: 84%
[15]
  residual activity: 100%
[16]
  residual activity: 100%
[17]
  residual activity: 100%
[18]
  residual activity: 88%
[19]
  IC50: < 0.5 nM (active)
[20]
  residual activity: 90%
[21]
  residual activity: 100%
[22]
  residual activity: 100%
[23]
  residual activity: 100%
[24]
  residual activity: 100%
[25]
  residual activity: 100%
[26]
  residual activity: 79%
[27]
  residual activity: 100%
[28]
  residual activity: 81%
[29]
  residual activity: 100%
[30]
  residual activity: 100%
[31]
  residual activity: 100%
[32]
  residual activity: 100%
[33]
  residual activity: 84%
[34]
  residual activity: 83%
[35]
  residual activity: 96%
[36]
  residual activity: 100%
[37]
  residual activity: 100%
[38]
  residual activity: 100%
[39]
  residual activity: 100%
[40]
  residual activity: 100%
[41]
  residual activity: 100%
[42]
  residual activity: 100%

## CC(C)(C)OC(=O)N1CCCC1CNC1CCC(c2cc(F)ccc2F)(S(=O)(=O)c2ccc(Cl)cc2)CC1 (stereo not given) [GSI-NC]
[43]
  Ki: 21 nM
[44]
  Ki: 234 nM
[45]
  Ki: 2430 nM
